The results in this text go back to US20220372013A2, “PIPERIDINE-2,6-DIONE DERIVATIVES AND CROHN'S DISEASE TREATING” (Tianjin Hemay Pharmaceutical Sci-Tech Co., Ltd, priority 2016, published 2022).

Molecules are shown by their SMILES. Marks after values point to notes of the source that are not given here.

For test [1], the system named is DNBS-Induced Inflammatory Bowel Disease Models in Rats. As to the kind of experiment: Biological Example 2: DNBS-induced inflammatory bowel disease models in rats. It is filed as in vivo, Wistar rats. How it is done: 110 male Wistar rats were fasted for 40 hours. A 5% glucose injection (10 mL/Kg) was administered subcutaneously during fasting. 48 rats with normal conditions and moderate body weight were selected from the fasting rats. The animals were randomly divided into […] according to the body weight: normal control group, model control group, sulfasalazine group (300 mg/Kg), dexamethasone group (0.1 mg/Kg), the compound in Example 26 group (30 mg/kg) and the compound in Example 27 group (30 mg/kg), with 8 rats in each group. The animals were anesthetized with isoflurane. A specially made gavage device (made by a rat gavage device having the diameter of 2 mm, which was nested on a mouse gavage device having the diameter of 1 mm) was slowly inserted into the enteric cavity at 8 cm from the anus. The model control group, the compound in Example 26 group and the compound in Example 27 group were administered with 0.5 mL of 50 mg/mL DNBS in 30% ethanol solution. The normal control group was administered with 0.5 mL of 30% ethanol solution. The animals were inverted in anesthesia for 15 minutes after the gavage device was removed. The day when the model was prepared was the first day of the experiment. After 4 hours of DNBS induction, the corresponding drug or the corresponding volume of 1% CMC-Na was administered once per day. On the sixth day of the experiment, the animals were euthanized to observe the results of each index so as to score the colon adhesion degree, measure the length of colon and ulcer area, weigh colon and calculate the colon weight to length ratio.
The compound in Example 26 and Example 27, sulfasalazine and dexamethasone: Preparation Method: Suspended with 1% CMC-Na, and prepared when it was needed.
Levene's Test for homogeneity of data was performed with Spss. Where the data were homogeneous (P>0.05), one-way ANOVA LSD test was performed. Where the analysis of variance was significant (P≤0.05), Dunnett's multiple comparison (parameter method) was performed. Where the results of Levene's Test were significant (P≤0.05), Kruskal-Wallis nonparametric test was performed. Where the results of Kruskal-Wallis nonparametric test were significant (P≤0.05), Mann-Whitney U test was performed for pairwise comparison.

For test [2] the test system is unchanged. The experiment in a line: Biological Example 3: DNBS-induced inflammatory bowel disease models in rats. Type of test: in vivo, Wistar rats. The note with it: 30 mg/Kg i.g. qd × 7; for Body weight: Mean ± SD. Here is the method: 102 male Wistar rats were fasted for 40 hours. A 5% glucose injection (10 mL/Kg) was administered subcutaneously during fasting. 72 rats with normal conditions and moderate body weight were selected from the fasting rats. The animals were randomly divided into 9 groups according to the body weight (see Table 9. Grouped Table).
The animals were anesthetized with ether after 40 hours fasting. A specially made gavage device was slowly inserted into the enteric cavity at 8 cm from the anus. The model control group and each test group were administered with 0.5 mL of 50 mg/mL DNBS in 30% ethanol solution. The normal control group was administered with 0.5 mL of 30% ethanol solution. The animals were inverted in anesthesia for 15 minutes. The day when the model was prepared was day 0 of the experiment. After 4 hours of DNBS induction, the corresponding drug or the corresponding volume of 1% CMC-Na was administered once per day. On day 7 of the experiment, the animals were euthanized to score the colon adhesion degree, measure the length of colon and ulcer area, weigh colon and calculate the colon weight to length ratio.
One-way ANOVA analysis of the length of colon and colon weight per length of rats was performed by SPSS22. Statistical analyses between groups were performed. The adhesion degree was scored. Mann-Whitney U non-parametric test was performed on ulcer area. Statistical analyses between groups were performed.
Calculation Formula of Inhibitory rate of weight increase per length: (Colon weight to length ratio in model group−Colon weight to length ratio in administration group)/(Colon weight to length ratio in model group−Colon weight to length ratio in blank group)

[3] abbreviates: 30 mg/Kg i.g. qd × 6, sixth day, Mean ± SD.

As to `COCCN1C(=O)CCC(N2C(=O)c3cccc(N)c3C2=O)C1=O` (centres unmarked) [Example 27, 4-amino-2-(1-(2-methoxyethyl)-2,6-dioxopiperidin-3-yl)isoindolin-1,3-dione], in test [1] (setting [3]), the “Adhesion Degree” value is recorded as 0.9 ± 0.8 Points, the “Colon Length” value stood at 12.9 ± 2.3 cm, the “Colon Weight” value is on record as 1737.9 ± 410.6 mg and the “Ulcer Area” value came to 2.0 ± 1.9 cm^2. The “therapeutic effects on the model (in words)” value in test [1] (30 mg/kg i.g. qd × 6) is listed as “good therapeutic effects”. For the same molecule, the “growth rate of the body weight (in words)” value in test [1] (fourth day of the experiment, compared with model control group, doses as in Table 7) is “higher than that in the model control group”. Besides, in test [2] (day 7), the “Adhesion Degree of Colon” value turned out to be 0.9 ± 0.4 point, the “Colon weight to length ratio” value worked out at 109 ± 12 mg/cm, the “Inhibitory rate of colon adhesion” value is on record as 47.1# % and the “Inhibitory rate of ulcer area of colon” value was 99.7## %. Moreover, in test [2] (day 7), the “Inhibitory rate of weight increase per length” value was 58.2## % and the “Ulcer area of colon” value is recorded as 0.01 ± 0.02## cm^2. The Body weight in test [2] (Day 0) worked out at 135.4 ± 4.9 g. Also, the Body weight in test [2] (Day 1) is 135.2 ± 4.2 g. Further, the Body weight in test [2] (Day 2) stood at 136.7 ± 5.0 g. In test [2] (Day 3), the Body weight is 141.7 ± 7.5 g. The Body weight in test [2] (Day 4) was found to be 150.1 ± 9.2 g. In test [2] (Day 5), this molecule yielded a Body weight of 159.1 ± 10.3 g. The same molecule came in with a Body weight in test [2] (Day 6) of 165.2 ± 10.0 g. This molecule showed a Body weight in test [2] (Day 7) of 175.8 ± 8.2 g.
